In patent US20080004290A1, “Anti-Cancer Agents” (THE UNIVERSITY OF QUEENSLAND, priority 2003, published 2008):
Like-named read-outs stand apart in the source and are kept apart here.

How the values were obtained:
[1] = test system: NFF, neonatal foreskin fibroblasts; experiment: Cell survival assay (clonogenic survival, SRB), normal cells; format: cell-based, human
How it was run: (§1)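 Cells (5×10^3/well, RPMI 1640 with 10% FCS) treated 24 h with compound at 0.01-10 μg/mL, then washed and grown 72 h drug-free at 37 °C, 5% CO2. Survival read by SRB staining after methylated-spirit fixation, absorbance 564 nm.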

MM96L melanoma cells = experiment: Cell survival assay (clonogenic survival, SRB); format: cell-based, human
How it was run: as §1

Mel FH melanoma cells = experiment: Cell survival assay (SRB); format: cell-based, human
Experimental: (§2) Cell Lines and Culture Medium. All cell lines used in this study have been described previously (Parsons et al., 1986; Todaro et al., 1980; Glenn et al., 2004). All cell lines were cultured in 10% heat-inactivated foetal calf serum (CSL, Australia) in RPMI 1640 medium supplemented with 100 U/mL penicillin, 100 μg/mL streptomycin, and 3 mM HEPES at 5% CO2, 99% humidity at 37° C. Primary human fibroblasts were obtained from neonatal foreskins and cultured in the above medium. Routine mycoplasma tests were performed using Hoechst stain^i and were always negative.
(§3) Cell Survival Assay. Cells were plated into 96-well microtitre plates at 5×10^3 cells/well, and allowed to adhere overnight. Test compounds were added to culture medium at the indicated concentrations, and plates incubated in the above conditions for 24 hours. Following this incubation period, compounds and media were removed, and replaced with fresh culture medium. Cells were then grown for a further 72 hours before assay using sulforhodamine B (SRB; Sigma, St. Louis, Mo.) as previously described. Briefly, the culture medium was removed from the 96-well microtitre plates and the plates washed twice with phosphate buffered saline (PBS), before the cells were fixed with methylated spirits for 15 minutes. The plates were then rinsed with tap water and the fixed cells stained with 50 μL/well of SRB solution (0.4% sulforhodamine B (w/v) in 1% (v/v) acetic acid) over a period of 1 hour. The SRB solution was then removed from the wells and the plates rapidly washed two times with 1% (v/v) acetic acid. Protein bound dye was then solubilised with the addition of 100 μL of 10 mM unbuffered Tris, and incubated for 15 min at 25° C. Plates were then read at 564 nm on a VERSA max tunable microplate reader (Molecular Devices, Sunnyvale, Calif.).

D11 melanoma cells = experiment: Cell survival assay (SRB); format: cell-based, human
Experimental: as §2, §3

LSP M2 cells = experiment: Cell survival assay (SRB); format: cell-based, human
Experimental: as §2, §3

AO7 RM cells = experiment: Cell survival assay (SRB); format: cell-based, human
Experimental: as §2, §3

D14 melanoma cells = experiment: Cell survival assay (SRB); format: cell-based, human
Experimental: as §2, §3

HeLa cells = experiment: Cell survival assay (SRB); format: cell-based, human
Experimental: as §2, §3

AF-6 cells = experiment: Cell survival assay (SRB); format: cell-based, human
Experimental: as §2, §3

MM604 melanoma cells = experiment: Cell survival assay (SRB); format: cell-based, human
Experimental: as §2, §3

MM470 melanoma cells = experiment: Cell survival assay (SRB); format: cell-based, human
Experimental: as §2, §3

Mel RM melanoma cells = experiment: Cell survival assay (SRB); format: cell-based, human
Experimental: as §2, §3

A2058 cells = experiment: Cell survival assay (SRB); format: cell-based, human
Experimental: as §2, §3

MM329 melanoma cells = experiment: Cell survival assay (SRB); format: cell-based, human
Experimental: as §2, §3

MM229 melanoma cells = experiment: Cell survival assay (SRB); format: cell-based, human
Experimental: as §2, §3

D17 melanoma cells = experiment: Cell survival assay (SRB); format: cell-based, human
Experimental: as §2, §3

SkMel28 melanoma cells = experiment: Cell survival assay (SRB); format: cell-based, human
How it was run: (§4)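 SRB absorbance at 564 nm measured surviving cell protein. Compound exposure lasted 24 h, followed by replacement with fresh medium and 72 h regrowth. Cells (5×10^3/well) were cultured in RPMI 1640/10% heat-inactivated FCS at 37° C, 5% CO2.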

DO4 melanoma cells = experiment: Cell survival assay (SRB); format: cell-based, human
How it was run: as §4

p21^WAF1/Cip1 (CDKN1A) = experiment: Induction of p21 expression (semi-quantitative RT-PCR) in MM96L cells; format: cell-based, human; settings: MM96L melanoma cells, 10 μg/ml, after 16 hrs treatment
From the text: Induction of p21 Expression. It has been postulated that histone acetylation is associated with activation of gene transcription. […] Possibly the best characterised gene to be induced following exposure to different HDAC inhibitors is that of the cyclin-dependent kinase inhibitor p21^WAF1/Cip1, which blocks cyclin-dependent kinase activity thereby causing cell-cycle arrest in G1. HDAC inhibitors are thought to act directly on the CDKN1A promoter rather than an upstream target. The HDAC inhibitor SAHA induces accumulation of acetylated histones in the chromatin associated with the CDKN1A gene, and this correlates with the observed increase in transcription. […]
Cell Treatment and Total RNA Isolation. […] RNA was analysed for sufficient quality by formamide agarose gel electrophoresis, and quantified by spectrophotometry.
p21 Expression. The semi-quantitative analysis of mRNA expression of p21^WAF1/Cip1 was carried out by RT-PCR. […] Products were analysed by agarose gel electrophoresis, and visualised on a UV light box. Product intensity was determined to increase linearly with number of cycles and amount of mRNA used, by densitometric analysis using ImageQuaNT 4.2 software (Molecular Dynamics, Sunnyvale, Calif.). Quantitation of p21^WAF1/Cip1 induction was also performed by densitometric analysis using ImageQuaNT 4.2 software following normalisation to GAPDH product intensity.

[2] = Oral bioavailability, plasma concentration after oral and intravenous administration; format: in vivo, Wistar rats; settings: 5 mg/kg in 4:1 olive oil:DMSO, three rats starved prior to dosing
Experimental: FIG. 7. Oral Bioavailability. Time dependent plasma concentration of compound of example 24 after oral (top) and intravenous (bottom) administration at 5 mg/kg to each of three Wistar rats.
Compounds of the invention were examined to see whether this new series had the expected favorable properties for oral delivery. […] Compound 24 (Log D7.0 2.7) was administered intravenously and orally to rats. […] Neither vehicle nor fasting had any significant effects on these parameters.

[3] = test system: CI-80-13S ovarian cancer cells; experiment: Cell survival assay (SRB); format: cell-based, human; settings: Table 10, standard deviations in parentheses, read-out: Cell line IC50 (μM) C18013S
How it was run: as §4

[4] = test system: DU145 prostate cancer cells; experiment: Cell survival assay (SRB); format: cell-based, human; settings: Table 10, standard deviations in parentheses, read-out: Cell line IC50 (μM) DU145
How it was run: as §4

[5] = test system: MCF-7 breast cancer cells; experiment: Cell survival assay (SRB); format: cell-based, human; settings: Table 10, standard deviations in parentheses, read-out: Cell line IC50 (μM) MCF7
How it was run: as §4

JAM ovarian cancer cells = experiment: Cell survival assay (SRB); format: cell-based, human; settings: Table 10, standard deviations in parentheses, read-out: Cell line IC50 (μM) JAM
How it was run: as §4

[6] = Homo sapiens, MM96L, most preferred compounds, exemplary examples, read-out: potency of IC50 against the MM96 melanoma cells
[7] = Table 11, IC50 (NFF)/IC50(cancer cell line)
[8] = Homo sapiens, Table 11, antiproliferative potency

**Q.** Which results are given for CN(C)c1ccc(C(=O)N[C@@H](CCCCCC(=O)NO)C(=O)NCc2ccccc2)cc1 (racemic) [Example 124]?
**A.** IC50 ([1]; Homo sapiens, Fibroblast, NFF normal fibroblasts, 24 h with compound, further 72 h growth, SRB, read-out: IC50 (uM) NFF): 0.87 ± 0.07 µM; IC50 ([1]; Homo sapiens, Fibroblast, Table 11, antiproliferative potency, read-out: IC50 (μM) NFF): 0.87 ± 0.07 µM; IC50 (MM96L melanoma cells; Homo sapiens, MM96L, MM96L melanoma, 24 h with compound, further 72 h growth, SRB, read-out: IC50 (uM) MM96L): 0.13 ± 0.02 µM; IC50 (MM96L melanoma cells; Homo sapiens, MM96L, Table 11, antiproliferative potency, read-out: IC50 (μM) MM96L): 0.13 ± 0.02 µM; IC50 (MM96L melanoma cells; [6]): ≤ 0.5 µM; SI (Selectivity Index = IC50 (NFF)/IC50 (MM96L)) (MM96L melanoma cells; NFF vs MM96L): 6.7; Selectivity MM96L (MM96L melanoma cells; [7]): 6.7; IC50 (Mel FH melanoma cells; [8]): 0.08 ± 0.04 µM; Selectivity Mel FH (Mel FH melanoma cells; [7]): 11; IC50 (D11 melanoma cells; [8]): 0.3 ± 0.2 µM; Selectivity D11 (D11 melanoma cells; [7]): 3; IC50 (LSP M2 cells; [8]): 0.45 ± 0.05 µM; Selectivity LSP M2 (LSP M2 cells; [7]): 2; IC50 (AO7 RM cells; [8]): 0.18 ± 0.07 µM; Selectivity AO7 RM (AO7 RM cells; [7]): 5; IC50 (D14 melanoma cells; [8]): 0.26 ± 0.08 µM; Selectivity D14 (D14 melanoma cells; [7]): 3; IC50 (HeLa cells; [8]): 0.09 ± 0.01 µM; Selectivity HeLa (HeLa cells; [7]): 10; IC50 (AF-6 cells; [8]): 0.3 ± 0.03 µM; Selectivity AF-6 (AF-6 cells; [7]): 3; IC50 (MM604 melanoma cells; [8]): 0.01 ± 0.01 µM; Selectivity MM604 (MM604 melanoma cells; [7]): 87; IC50 (MM470 melanoma cells; [8]): 0.09 ± 0.07 µM; Selectivity MM470 (MM470 melanoma cells; [7]): 10; IC50 (Mel RM melanoma cells; [8]): 0.95 ± 0.07 µM; Selectivity Mel RM (Mel RM melanoma cells; [7]): 0.9; IC50 (A2058 cells; Homo sapiens, A2058, Table 11, antiproliferative potency): 0.1 ± 0.02 µM; Selectivity A2058 (A2058 cells; [7]): 9; IC50 (MM329 melanoma cells; [8]): 0.06 ± 0.04 µM; Selectivity MM329 (MM329 melanoma cells; [7]): 15; IC50 (MM229 melanoma cells; [8]): 0.6 ± 0.08 µM; Selectivity MM229 (MM229 melanoma cells; [7]): 1.5; IC50 (D17 melanoma cells; Homo sapiens, D17, Table 11, antiproliferative potency): 0.06 ± 0.02 µM; Selectivity D17 (D17 melanoma cells; [7]): 15; IC50 (SkMel28 melanoma cells; Homo sapiens, SK-MEL-28, Table 11, antiproliferative potency, read-out: IC50 (μM) SK Mel 28): 0.06 ± 0.04 µM; Selectivity SK Mel 28 (SkMel28 melanoma cells; [7]): 15; IC50 (DO4 melanoma cells; Homo sapiens, DO4, Table 11, antiproliferative potency, read-out: IC50 (μM) DO4): 0.12 ± 0.03 µM; Selectivity DO4 (DO4 melanoma cells; [7]): 7

**Q.** With O=C(CCCSC[C@H](NC(=O)c1ccc(Br)cc1)C(=O)NCc1ccccc1)NO [Example 24] as the compound, how does the IC50 ([1]; Table 10, standard deviations in parentheses, read-out: Cell line IC50 (μM) NFF) read?
**A.** The IC50 was 0.83 µM.

**Q.** What about the IC50 (MM96L melanoma cells; Table 10, standard deviations in parentheses, read-out: Cell line IC50 (μM) MM96L) of the same compound?
**A.** The IC50 was 0.2 µM.

**Q.** What about the “Induction of mRNA for p21^WAF1/Cip1” value (p21^WAF1/Cip1 (CDKN1A)) of the same compound?
**A.** Its value is “Induction of mRNA for p21^WAF1/Cip1 was seen”.

**Q.** What about the Tmax [2] of the same compound?
**A.** The Tmax was roughly 15 min.

**Q.** And the “time for which high serum levels of drug were maintained” value [2]?
**A.** The value was greater than 4 h.

**Q.** And the Cmax ([2]; serum, preliminary study)?
**A.** The Cmax was roughly 6000 ng/mL.

**Q.** What about the IC50 [3] of the same compound?
**A.** The IC50 was 1.5 µM.

**Q.** And the IC50 [4]?
**A.** The IC50 was 3.8 µM.

**Q.** And the IC50 (SkMel28 melanoma cells; Table 10, standard deviations in parentheses, read-out: Cell line IC50 (μM) SkMel)?
**A.** The IC50 was 5.7 µM.

**Q.** What about the IC50 [5] of the same compound?
**A.** The IC50 was 1.16 µM.

**Q.** What about the IC50 (JAM ovarian cancer cells) of the same compound?
**A.** The IC50 was 2 µM.

**Q.** What about the IC50 (DO4 melanoma cells; Table 10, standard deviations in parentheses, read-out: Cell line IC50 (μM) DO4) of the same compound?
**A.** Its IC50 is 3.5 µM.

**Q.** What does the source list for CN(C)c1ccc(C(=O)N[C@@H](CSCCCC(=O)NO)C(=O)NC2CCCc3ccccc32)cc1 (stereo partly shown) [Example 67]?
**A.** IC50 ([1]; Homo sapiens, Fibroblast, 24 h, Table 6, 24 hours with compound, further growth, SRB, read-out: IC50 (μM) NFF): 2.2 ± 0.2 µM; IC50 ([1]; Homo sapiens, Fibroblast, Table 10, standard deviations in parentheses, read-out: Cell line IC50 (μM) NFF): 2.2 µM; IC50 (MM96L melanoma cells; Homo sapiens, MM96L, 24 h, Table 6, 24 hours with compound, further growth, SRB, read-out: IC50 (μM) MM96L): 0.2 ± 0.1 µM; IC50 (MM96L melanoma cells; Homo sapiens, MM96L, Table 10, standard deviations in parentheses, read-out: Cell line IC50 (μM) MM96L): 0.2 µM; IC50 (MM96L melanoma cells; [6]): ≤ 0.5 µM; Selectivity (MM96L melanoma cells; Table 6, IC50 (NFF)/IC50 (MM96L)): 11; Induction of mRNA for p21^WAF1/Cip1 (p21^WAF1/Cip1 (CDKN1A)): Induction of mRNA for p21^WAF1/Cip1 was seen; IC50 ([3]; Homo sapiens, C180-13S): 1.24 µM; IC50 ([4]; Homo sapiens, DU-145): 1.06 µM; IC50 (SkMel28 melanoma cells; Homo sapiens, SK-MEL-28, Table 10, standard deviations in parentheses, read-out: Cell line IC50 (μM) SkMel): 2.59 µM; IC50 ([5]; Homo sapiens, MCF7): 0.96 µM; IC50 (JAM ovarian cancer cells; Homo sapiens): 1.47 µM; IC50 (DO4 melanoma cells; Homo sapiens, DO4, Table 10, standard deviations in parentheses, read-out: Cell line IC50 (μM) DO4): 2.73 µM
